Reference: ChEMBL document CHEMBL3885861, “Open TG-GATES”

Organism: Rattus norvegicus
Experiment: Open TG-GATES - Regimen: Single
Assay type: toxicity, organism-based, Sprague-Dawley
Parameters: regimen Single, gender Male, age 6 weeks
Conditions: in vivo, po, route gavage; for Bas / Eos / Fbg / Ht / Lym / MCHC / MCV / Mono / Neu / PT / Plat / RBC / Ret / WBC / APTT / Hb: tissue Blood; for KIDNEY_L / KIDNEY_R / KIDNEY_TOTAL: tissue Kidney; for LIVER: tissue Liver; for ALP / ALT / AST / BUN / CRE / Ca / Cl / DBIL / GLC / IP / LDH / Na / PL / RALB / TBIL / TC / TG / TP / gamma-GTP: tissue Plasma
[1] = 120 mg/kg, 3 h, dose level Middle
[2] = 120 mg/kg, 6 h, dose level Middle
[3] = 120 mg/kg, 9 h, dose level Middle
[4] = 120 mg/kg, 24 h, dose level Middle
[5] = 400 mg/kg, 3 h, dose level High
[6] = 400 mg/kg, 6 h, dose level High
[7] = 400 mg/kg, 9 h, dose level High
[8] = 400 mg/kg, 24 h, dose level High

CC(C)N(CCC(C(N)=O)(c1ccccc1)c1ccccn1)C(C)C (stereo not drawn) [DISOPYRAMIDE]
Bas [1]: 0%
Eos [1]: 0.8%
Fbg [1]: 307.4 mg/dL
Ht [1]: 41.8%
Lym [1]: 77.4%
MCHC [1]: 32.3%
MCV [1]: 62.8 fL
Mono [1]: 2.2%
Neu [1]: 19%
PT [1]: 15.5 s
Plat [1]: 121.9 x10_4/uL
RBC [1]: 665.8 x10_4/ul
Ret [1]: 7.4%
WBC [1]: 63.5 x10_2/uL
KIDNEY_L [1]: 0.9 g
KIDNEY_R [1]: 1 g
KIDNEY_TOTAL [1]: 1.9 g
LIVER [1]: 9.5 g
ALP [1]: 1368.8 IU/L
ALT [1]: 51.2 IU/L
AST [1]: 89.2 IU/L
BUN [1]: 10.6 mg/dL
CRE [1]: 0.2 mg/dL
Ca [1]: 10.4 mg/dL
Cl [1]: 106 meq/L
DBIL [1]: 0.002 mg/dL
GLC [1]: 161 mg/dL
IP [1]: 8.5 mg/dL
LDH [1]: 202.4 IU/L
Na [1]: 141.6 meq/L
PL [1]: 124 mg/dL
RALB [1]: 3.1 g/dL
TBIL [1]: 0.002 mg/dL
TC [1]: 70.6 mg/dL
TG [1]: 47 mg/dL
TP [1]: 5.6 g/dL
gamma-GTP [1]: 1 IU/L
TERMINAL_BW [2]: 209.6 g
APTT [2]: 22.7 s
Bas [2]: 0%
Eos [2]: 0.8%
Fbg [2]: 320.6 mg/dL
Hb [2]: 12.9 g/dL
Ht [2]: 40.3%
Lym [2]: 72.2%
MCHC [2]: 31.9%
MCV [2]: 63.4 fL
Mono [2]: 2.6%
Neu [2]: 23.4%
PT [2]: 15.5 s
Plat [2]: 123.1 x10_4/uL
RBC [2]: 635.2 x10_4/ul
Ret [2]: 7.7%
WBC [2]: 86 x10_2/uL
KIDNEY_L [2]: 0.9 g
KIDNEY_R [2]: 1 g
KIDNEY_TOTAL [2]: 1.9 g
LIVER [2]: 9.2 g
ALP [2]: 1458 IU/L
ALT [2]: 41.2 IU/L
AST [2]: 72.6 IU/L
BUN [2]: 11.6 mg/dL
CRE [2]: 0.2 mg/dL
Ca [2]: 10.7 mg/dL
Cl [2]: 106 meq/L
DBIL [2]: 0.002 mg/dL
GLC [2]: 159.2 mg/dL
IP [2]: 9.1 mg/dL
LDH [2]: 198.6 IU/L
Na [2]: 139.4 meq/L
PL [2]: 142 mg/dL
RALB [2]: 3 g/dL
TBIL [2]: 0.002 mg/dL
TC [2]: 80.8 mg/dL
TG [2]: 82.2 mg/dL
TP [2]: 5.6 g/dL
gamma-GTP [2]: 1.4 IU/L
TERMINAL_BW [3]: 199.9 g
APTT [3]: 21.7 s
Bas [3]: 0%
Eos [3]: 0.8%
Fbg [3]: 330 mg/dL
Ht [3]: 41.9%
Lym [3]: 77.2%
MCHC [3]: 32.4%
MCV [3]: 64.1 fL
Mono [3]: 1.8%
Neu [3]: 19.8%
PT [3]: 15.7 s
Plat [3]: 117.5 x10_4/uL
RBC [3]: 653.4 x10_4/ul
Ret [3]: 7.3%
WBC [3]: 61.1 x10_2/uL
KIDNEY_L [3]: 0.9 g
KIDNEY_R [3]: 1 g
KIDNEY_TOTAL [3]: 1.9 g
LIVER [3]: 8.3 g
ALP [3]: 1309 IU/L
ALT [3]: 35.6 IU/L
AST [3]: 67.6 IU/L
BUN [3]: 13.6 mg/dL
CRE [3]: 0.2 mg/dL
Ca [3]: 10.7 mg/dL
Cl [3]: 107.6 meq/L
DBIL [3]: 0 mg/dL
GLC [3]: 149.6 mg/dL
IP [3]: 8.9 mg/dL
LDH [3]: 166 IU/L
Na [3]: 140.8 meq/L
PL [3]: 121 mg/dL
RALB [3]: 3.1 g/dL
TBIL [3]: 0.006 mg/dL
TC [3]: 63.2 mg/dL
TG [3]: 74 mg/dL
TP [3]: 5.6 g/dL
gamma-GTP [3]: 1.2 IU/L
TERMINAL_BW [4]: 220.9 g
APTT [4]: 21 s
Bas [4]: 0%
Eos [4]: 1%
Fbg [4]: 319 mg/dL
Ht [4]: 40.2%
Lym [4]: 80.8%
MCHC [4]: 32.7%
MCV [4]: 64.1 fL
Mono [4]: 1.8%
Neu [4]: 15.6%
PT [4]: 15.8 s
Plat [4]: 119.1 x10_4/uL
RBC [4]: 627.6 x10_4/ul
Ret [4]: 7.3%
WBC [4]: 89.5 x10_2/uL
KIDNEY_L [4]: 1 g
KIDNEY_R [4]: 1 g
KIDNEY_TOTAL [4]: 2 g
LIVER [4]: 11.2 g
ALP [4]: 1568 IU/L
ALT [4]: 53.6 IU/L
AST [4]: 76.6 IU/L
BUN [4]: 14.6 mg/dL
CRE [4]: 0.2 mg/dL
Ca [4]: 10.9 mg/dL
Cl [4]: 105.6 meq/L
DBIL [4]: 0 mg/dL
IP [4]: 8.9 mg/dL
LDH [4]: 160 IU/L
Na [4]: 143.4 meq/L
PL [4]: 157 mg/dL
RALB [4]: 3 g/dL
TBIL [4]: 0 mg/dL
TC [4]: 82.2 mg/dL
TG [4]: 118.2 mg/dL
TP [4]: 5.5 g/dL
gamma-GTP [4]: 1.6 IU/L
TERMINAL_BW [5]: 210.5 g
APTT [5]: 22.6 s
Bas [5]: 0%
Eos [5]: 1%
Fbg [5]: 327.6 mg/dL
Ht [5]: 41.8%
Lym [5]: 74.6%
MCHC [5]: 32.1%
MCV [5]: 62.7 fL
Mono [5]: 2.2%
Neu [5]: 22%
PT [5]: 15.5 s
Plat [5]: 127.1 x10_4/uL
RBC [5]: 667.8 x10_4/ul
Ret [5]: 8%
WBC [5]: 55.8 x10_2/uL
KIDNEY_L [5]: 1 g
KIDNEY_R [5]: 1 g
KIDNEY_TOTAL [5]: 1.9 g
LIVER [5]: 9.8 g
ALT [5]: 47.4 IU/L
AST [5]: 85.2 IU/L
BUN [5]: 12.2 mg/dL
CRE [5]: 0.1 mg/dL
Ca [5]: 10.2 mg/dL
Cl [5]: 106.2 meq/L
DBIL [5]: 0.002 mg/dL
GLC [5]: 129.8 mg/dL
IP [5]: 8.9 mg/dL
LDH [5]: 264.8 IU/L
Na [5]: 142.8 meq/L
PL [5]: 126.6 mg/dL
RALB [5]: 3 g/dL
TBIL [5]: 0 mg/dL
TC [5]: 74.2 mg/dL
TG [5]: 47.8 mg/dL
TP [5]: 5.6 g/dL
gamma-GTP [5]: 1 IU/L
TERMINAL_BW [6]: 207.1 g
APTT [6]: 22.8 s
Bas [6]: 0%
Eos [6]: 0.4%
Fbg [6]: 326 mg/dL
Ht [6]: 42.8%
Lym [6]: 73.2%
MCHC [6]: 31.8%
MCV [6]: 62.5 fL
Mono [6]: 2.6%
Neu [6]: 23.2%
PT [6]: 15.4 s
Plat [6]: 122.6 x10_4/uL
RBC [6]: 685.8 x10_4/ul
Ret [6]: 7.5%
WBC [6]: 67.9 x10_2/uL
KIDNEY_L [6]: 1 g
KIDNEY_R [6]: 1 g
KIDNEY_TOTAL [6]: 2 g
LIVER [6]: 9.2 g
ALP [6]: 1240.8 IU/L
ALT [6]: 38.8 IU/L
AST [6]: 74 IU/L
BUN [6]: 12.2 mg/dL
CRE [6]: 0.1 mg/dL
Ca [6]: 10.4 mg/dL
Cl [6]: 105.8 meq/L
DBIL [6]: 0.006 mg/dL
GLC [6]: 157.2 mg/dL
IP [6]: 8.7 mg/dL
LDH [6]: 237.8 IU/L
Na [6]: 140.6 meq/L
PL [6]: 132.2 mg/dL
RALB [6]: 3 g/dL
TBIL [6]: 0.006 mg/dL
TC [6]: 75.4 mg/dL
TG [6]: 43.2 mg/dL
TP [6]: 5.6 g/dL
gamma-GTP [6]: 1.6 IU/L
TERMINAL_BW [7]: 208.7 g
APTT [7]: 24 s
Bas [7]: 0%
Eos [7]: 0.4%
Fbg [7]: 326 mg/dL
Ht [7]: 42.6%
Lym [7]: 71.8%
MCHC [7]: 31.9%
MCV [7]: 62.9 fL
Mono [7]: 1.8%
Neu [7]: 25.4%
PT [7]: 15.7 s
Plat [7]: 120.6 x10_4/uL
RBC [7]: 677.6 x10_4/ul
Ret [7]: 7.7%
WBC [7]: 64.5 x10_2/uL
KIDNEY_L [7]: 1 g
KIDNEY_R [7]: 1 g
KIDNEY_TOTAL [7]: 2 g
LIVER [7]: 9 g
ALP [7]: 1238 IU/L
ALT [7]: 41 IU/L
AST [7]: 79 IU/L
BUN [7]: 14 mg/dL
CRE [7]: 0.1 mg/dL
Ca [7]: 10.6 mg/dL
Cl [7]: 106 meq/L
DBIL [7]: 0 mg/dL
GLC [7]: 145.6 mg/dL
IP [7]: 8.4 mg/dL
LDH [7]: 217.4 IU/L
Na [7]: 142 meq/L
PL [7]: 130.4 mg/dL
RALB [7]: 3.1 g/dL
TBIL [7]: 0 mg/dL
TC [7]: 70.8 mg/dL
TG [7]: 63.4 mg/dL
TP [7]: 5.8 g/dL
gamma-GTP [7]: 1.4 IU/L
TERMINAL_BW [8]: 215.7 g
APTT [8]: 23.1 s
Bas [8]: 0%
Eos [8]: 0.8%
Fbg [8]: 289.6 mg/dL
Hb [8]: 13 g/dL
Ht [8]: 40.3%
Lym [8]: 83%
MCHC [8]: 32.2%
MCV [8]: 63.1 fL
Mono [8]: 1.6%
PT [8]: 16.1 s
Plat [8]: 118.5 x10_4/uL
RBC [8]: 639.8 x10_4/ul
Ret [8]: 6.5%
WBC [8]: 82.6 x10_2/uL
KIDNEY_L [8]: 1 g
KIDNEY_R [8]: 1 g
KIDNEY_TOTAL [8]: 1.9 g
LIVER [8]: 8.8 g
ALP [8]: 1524 IU/L
ALT [8]: 48.2 IU/L
AST [8]: 78.6 IU/L
BUN [8]: 16 mg/dL
CRE [8]: 0.2 mg/dL
Ca [8]: 10.4 mg/dL
Cl [8]: 106 meq/L
DBIL [8]: 0 mg/dL
GLC [8]: 153.2 mg/dL
IP [8]: 8.8 mg/dL
LDH [8]: 215.8 IU/L
PL [8]: 133.2 mg/dL
RALB [8]: 2.8 g/dL
TBIL [8]: 0 mg/dL
TC [8]: 75 mg/dL
TG [8]: 58.2 mg/dL
TP [8]: 5.4 g/dL
gamma-GTP [8]: 2 IU/L
